Results: patent publication US20130184257A1, “PIPERIDINYL-SUBSTITUTED LACTAMS AS GPR119 MODULATORS” (priority 2010, published 2013)

System: modified version of the GPR119 receptor (94% identity to human receptor) stably expressed in HEK-293 cells
Assay: cAMP Production Assay (LANCE cAMP kit, TR-FRET)
Format: cell-based
Conditions: for cAMP production in HEK-293 cells: HEK-293 cells expressing modified GPR119, test compounds 0.2 nM to 10 μM, one-hour incubation at ambient temperature; for Fold over baseline: increase in cAMP relative to basal levels, 1.5-fold or greater = agonist activity
Protocol: The assay utilized HEK-293 cells that stably express a modified version of the GPR119 receptor (94% identity to human receptor), under the control of a CMV promoter containing a tet-on element for tetracycline-inducible expression. GPR119 agonist-induced cyclic AMP (cAMP) production was measured in this cell line using the LANCE cAMP kit (Perkin Elmer, Waltham, Mass.). To generate a working stock of cells for the assay, cells were treated overnight with 1 μg/mL doxycycline at 37° C. in the presence of 5% CO2 to induce receptor expression. Cells were then harvested by enzymatic dissociation with 0.05% trypsin, resuspended in freezing medium (DMEM growth medium with 10% each of fetal bovine serum and DMSO), aliquoted and frozen at −80° C. On the day of the assay, frozen cells were thawed, washed 1× in PBS and resuspended in Hank's buffered salt solution (HBSS) containing 5 mM HEPES, 0.1% BSA and Alexa Fluor 647-conjugated anti-cAMP antibody (diluted 1:100). The cell suspension was then transferred to a Proxiplate Plus white 384-well assay plate (Perkin-Elmer) at 2000 cells/well. Test compounds at final concentrations ranging from 0.2 nM to 10 μM were added to the assay plate, followed by a one-hour incubation at ambient temperature (volume=10 μL/well). DMSO concentration was held constant at 0.5%. After incubation with test compounds, 10 μL of a detergent buffer containing a biotinylated cAMP/Europium-conjugated streptavidin complex (Europium-labeled cAMP tracer) were added to each well on the assay plate, followed by a 2-hour incubation at ambient temperature. During this incubation cAMP released from lysed cells competes with the Europium-labeled cAMP tracer for binding to the Alexa Fluor 647-conjugated antibody. […] Cellular cAMP levels were then determined by interpolation of raw signal data using a cAMP standard curve. Compounds were determined to have agonist activity if they stimulated a 1.5-fold or greater increase in cAMP relative to basal levels.

In the case of `CS(=O)(=O)c1ccc(O[C@H]2CCN(C3CCN(c4noc(C(F)(F)F)n4)CC3)C2=O)c(F)c1` [Example 24, (S)-3-(2-fluoro-4-(methylsulfonyl)phenoxy)-1-(1-(5-(trifluoromethyl)-1,2,4-oxadiazol-3-yl)piperidin-4-yl)pyrrolidin-2-one], the “cAMP production in HEK-293 cells” value is reported as 81.6 nmol and the Fold over baseline is reported as 4.4.

`CS(=O)(=O)c1cc(F)c(N[C@H]2CCCN(C3CCN(c4noc(C(F)(F)F)n4)CC3)C2=O)cc1F` [Example 25, (S)-3-(2,5-difluoro-4-(methylsulfonyl)phenylamino)-1′-(5-(trifluoromethyl)-1,2,4-oxadiazol-3-yl)-1,4′-bipiperidin-2-one] was tested, and the “cAMP production in HEK-293 cells” value was 49.0 nmol and the Fold over baseline was 2.9.

For `CS(=O)(=O)c1cc(F)c(O[C@H]2CCN(C3CCN(c4noc(C(F)(F)F)n4)CC3)C2=O)cc1F` [Example 27, (S)-3-(2,5-difluoro-4-(methylsulfonyl)phenoxy)-1-(1-(5-(trifluoromethyl)-1,2,4-oxadiazol-3-yl)piperidin-4-yl)pyrrolidin-2-one], the “cAMP production in HEK-293 cells” value was 98.9 nmol and the Fold over baseline was 5.1.

For `CS(=O)(=O)c1cc(F)c(O[C@H]2CCN(C3CCN(c4noc(C(F)(F)F)n4)CC3)C2=O)c(F)c1` [Example 28, (S)-3-(2,6-difluoro-4-(methylsulfonyl)phenoxy)-1-(1-(5-(trifluoromethyl)-1,2,4-oxadiazol-3-yl)piperidin-4-yl)pyrrolidin-2-one], the “cAMP production in HEK-293 cells” value was 101.5 nmol and the Fold over baseline was 5.0.

`CS(=O)(=O)c1ccc(N[C@H]2CCCN(C3CCN(c4noc(C(F)(F)F)n4)CC3)C2=O)c(F)c1` [Example 29, (S)-3-(2-fluoro-4-(methylsulfonyl)phenylamino)-1′-(5-(trifluoromethyl)-1,2,4-oxadiazol-3-yl)-1,4′-bipiperidin-2-one] was tested, and the “cAMP production in HEK-293 cells” value was 47.6 nmol and the Fold over baseline was 3.0.

`CS(=O)(=O)c1cc(F)c(N[C@H]2CCN(C3CCN(c4noc(C(F)F)n4)CC3)C2=O)cc1F` [Example 30, (S)-3-(2,5-difluoro-4-(methylsulfonyl)phenylamino)-1-(1-(5-(difluoromethyl)-1,2,4-oxadiazol-3-yl)piperidin-4-yl)pyrrolidin-2-one] was tested, and the “cAMP production in HEK-293 cells” value was 7.5 nmol and the Fold over baseline was 3.1.

`CS(=O)(=O)c1cc(F)c(N[C@H]2CCN(C3CCN(c4noc(C(F)F)n4)CC3)C2=O)c(F)c1` [Example 31, (S)-3-(2,6-difluoro-4-(methylsulfonyl)phenylamino)-1-(1-(5-(difluoromethyl)-1,2,4-oxadiazol-3-yl)piperidin-4-yl)pyrrolidin-2-one] was tested, and the “cAMP production in HEK-293 cells” value was 4.9 nmol and the Fold over baseline was 2.3.

For `CS(=O)(=O)c1cc(F)c(N[C@H]2CCCN(C3CCN(c4noc(C(F)F)n4)CC3)C2=O)c(F)c1` [Example 32, (S)-3-(2,6-difluoro-4-(methylsulfonyl)phenylamino)-1′-(5-(difluoromethyl)-1,2,4-oxadiazol-3-yl)-1,4′-bipiperidin-2-one], the “cAMP production in HEK-293 cells” value was 7.9 nmol and the Fold over baseline was 2.4.

`CS(=O)(=O)c1cc(F)c(N[C@H]2CCCN(C3CCN(c4noc(C(F)F)n4)CC3)C2=O)cc1F` [Example 33, (S)-3-(2,5-difluoro-4-(methylsulfonyl)phenylamino)-1′-(5-(difluoromethyl)-1,2,4-oxadiazol-3-yl)-1,4′-bipiperidin-2-one] was tested, and the “cAMP production in HEK-293 cells” value was 10.1 nmol and the Fold over baseline was 2.5.

`CCS(=O)(=O)c1ccc(N[C@H]2CCN(C3CCN(c4noc(C(F)(F)F)n4)CC3)C2=O)c(F)c1` [Example 34, (S)-3-(4-(ethylsulfonyl)-2-fluorophenylamino)-1-(1-(5-(trifluoromethyl)-1,2,4-oxadiazol-3-yl)piperidin-4-yl)pyrrolidin-2-one] was tested, and the “cAMP production in HEK-293 cells” value was 7.3 nmol and the Fold over baseline was 2.8.

For `CS(=O)(=O)c1ccc(N[C@H]2CCN(C3CCN(c4noc(CC(F)(F)F)n4)CC3)C2=O)c(F)c1` [Example 36, (S)-3-(2-fluoro-4-(methylsulfonyl)phenylamino)-1-(1-(5-(2,2,2-trifluoroethyl)-1,2,4-oxadiazol-3-yl)piperidin-4-yl)pyrrolidin-2-one], the “cAMP production in HEK-293 cells” value was 9.9 nmol and the Fold over baseline was 4.3.

`CCCc1nc(N2CCC(N3CC[C@H](Nc4ccc(S(C)(=O)=O)cc4F)C3=O)CC2)no1` [Example 37] was tested, and the “cAMP production in HEK-293 cells” value was 12.2 nmol and the Fold over baseline was 3.7.

For `CS(=O)(=O)c1ccc(N[C@H]2CCN(C3CCN(c4noc(-c5ccccn5)n4)CC3)C2=O)c(F)c1` [Example 38, (S)-3-(2-fluoro-4-(methylsulfonyl)-phenylamino)-1-(1-(5-(pyridin-2-yl)-1,2,4-oxadiazol-3-yl)piperidin-4-yl)pyrrolidin-2-one], the “cAMP production in HEK-293 cells” value was 9.0 nmol and the Fold over baseline was 3.5.

With `CC(C)(c1nc(N2CCC(N3CC[C@H](Nc4ccc(S(C)(=O)=O)cc4F)C3=O)CC2)no1)C(F)(F)F` [Example 39, (S)-3-(2-fluoro-4-(methylsulfonyl)-phenylamino)-1-(1-(5-(1,1,1-trifluoro-2-methylpropan-2-yl)-1,2,4-oxadiazol-3-yl)piperidin-4-yl)pyrrolidin-2-one] the “cAMP production in HEK-293 cells” value was 8.7 nmol and the Fold over baseline was 2.9.

With `CS(=O)(=O)c1ccc(N[C@H]2CCN(C3CCN(c4noc(C5CCC5)n4)CC3)C2=O)c(F)c1` [Example 40, (S)-1-(1-(5-cyclobutyl-1,2,4-oxadiazol-3-yl)piperidin-4-yl)-3-(2-fluoro-4-(methylsulfonyl)-phenylamino)pyrrolidin-2-one] the “cAMP production in HEK-293 cells” value was 17.5 nmol and the Fold over baseline was 5.7.

In the case of `CC[C@H](C)c1nc(N2CCC(N3CC[C@H](Nc4ccc(S(C)(=O)=O)cc4F)C3=O)CC2)no1` [Example 41, (S)-1-(1-(5-sec-butyl-1,2,4-oxadiazol-3-yl)piperidin-4-yl)-3-(2-fluoro-4-(methylsulfonyl)phenylamino)-pyrrolidin-2-one], the “cAMP production in HEK-293 cells” value is reported as 15.9 nmol and the Fold over baseline is reported as 4.0.

`CC(C)(F)c1nc(N2CCC(N3CC[C@H](Nc4ccc(S(C)(=O)=O)cc4F)C3=O)CC2)no1` [Example 42, (S)-3-(2-fluoro-4-(methylsulfonyl)-phenylamino)-1-(1-(5-(2-fluoropropan-2-yl)-1,2,4-oxadiazol-3-yl)piperidin-4-yl)pyrrolidin-2-one] was tested, and the “cAMP production in HEK-293 cells” value was 12.5 nmol and the Fold over baseline was 5.1.

In the case of `CS(=O)(=O)c1ccc(N[C@H]2CCN(C3CCN(c4noc(C5CCCC5)n4)CC3)C2=O)c(F)c1` [Example 43, (S)-1-(1-(5-cyclopentyl-1,2,4-oxadiazol-3-yl)piperidin-4-yl)-3-(2-fluoro-4-(methylsulfonyl)-phenylamino)-pyrrolidin-2-one], the “cAMP production in HEK-293 cells” value is reported as 14.7 nmol and the Fold over baseline is reported as 3.6.

`CS(=O)(=O)c1ccc(N[C@H]2CCN(C3CCN(c4noc(-c5ccccc5)n4)CC3)C2=O)c(F)c1` [Example 44, (S)-3-(2-fluoro-4-(methylsulfonyl)-phenylamino)-1-(1-(5-phenyl-1,2,4-oxadiazol-3-yl)piperidin-4-yl)pyrrolidin-2-one] was tested, and the “cAMP production in HEK-293 cells” value was 19.5 nmol and the Fold over baseline was 6.8.
